pIC50: −log10 of the molar value. Active and inactive are the calls of the source. The calls are words filed in the database; no cut-off is given here.
Assays:
Nucleic Acid [1] = experiment: Binding affinity to duplex DG DNA in 0.02 M cacodylate buffer assessed as change in melting temperature at 10 uM at pH 7 by UV spectrophotometer analysis; assay type: nucleic-acid assay
Nucleic Acid [2] = experiment: Binding affinity to duplex DG DNA in 0.02 M cacodylate buffer assessed as change in melting temperature at 10 uM at pH 7 by UV spectrophotometer analysis in presence of 0.1 M sodium chloride; assay type: nucleic-acid assay
Nucleic Acid [3] = experiment: Binding affinity to duplex DA DNA in 0.02 M cacodylate buffer assessed as change in melting temperature at 10 uM at pH 7 by UV spectrophotometer analysis; assay type: nucleic-acid assay
Nucleic Acid [4] = experiment: Binding affinity to duplex DA DNA in 0.02 M cacodylate buffer assessed as change in melting temperature at 10 uM at pH 7 by UV spectrophotometer analysis in presence of 0.1 M sodium chloride; assay type: nucleic-acid assay
Nucleic Acid [5] = experiment: Binding affinity to duplex DM DNA in 0.02 M cacodylate buffer assessed as change in melting temperature at 10 uM at pH 7 by UV spectrophotometer analysis; assay type: nucleic-acid assay
Nucleic Acid [6] = experiment: Binding affinity to duplex DM DNA in 0.02 M cacodylate buffer assessed as change in melting temperature at 10 uM at pH 7 by UV spectrophotometer analysis in presence of 0.1 M sodium chloride; assay type: nucleic-acid assay
5637 = experiment: Cytotoxicity against human 5637 cells assessed after 92 hrs by microtiter assay; assay type: functional, cell-based; conditions: Homo sapiens, 5637, 92 h
RT-4 = experiment: Cytotoxicity against human RT4 cells after 92 hrs by microtiter assay; assay type: functional, cell-based; conditions: RT-4, 92 h
A-427 = experiment: Cytotoxicity against human A427 cells after 92 hrs by microtiter assay; assay type: functional, cell-based; conditions: A-427, 92 h
[7] = Cytotoxicity against human LCLC-103H cells after 92 hrs by microtiter assay; assay type: functional, cell-based
DAN-G = experiment: Cytotoxicity against human DAN-G cells after 92 hrs by microtiter assay; assay type: functional, cell-based
MCF7 = experiment: Cytotoxicity against human MCF7 cells after 92 hrs by microtiter assay; assay type: functional, cell-based; conditions: MCF7, 92 h
Nucleic Acid [8] = experiment: Binding affinity to duplex DG DNA in 0.02 M cacodylate buffer assessed as melting temperature at 10 uM at pH 7 by UV spectrophotometer analysis; assay type: nucleic-acid assay
Nucleic Acid [9] = experiment: Binding affinity to duplex DG DNA in 0.02 M cacodylate buffer assessed as melting temperature at 10 uM at pH 7 by UV spectrophotometer analysis in presence of 0.1 M sodium chloride; assay type: nucleic-acid assay
Nucleic Acid [10] = experiment: Binding affinity to duplex DA DNA in 0.02 M cacodylate buffer assessed as melting temperature at 10 uM at pH 7 by UV spectrophotometer analysis; assay type: nucleic-acid assay
Nucleic Acid [11] = experiment: Binding affinity to duplex DA DNA in 0.02 M cacodylate buffer assessed as melting temperature at 10 uM at pH 7 by UV spectrophotometer analysis in presence of 0.1 M sodium chloride; assay type: nucleic-acid assay
Nucleic Acid [12] = experiment: Binding affinity to duplex DM DNA in 0.02 M cacodylate buffer assessed as melting temperature at 10 uM at pH 7 by UV spectrophotometer analysis; assay type: nucleic-acid assay
Nucleic Acid [13] = experiment: Binding affinity to duplex DM DNA in 0.02 M cacodylate buffer assessed as melting temperature at 10 uM at pH 7 by UV spectrophotometer analysis in presence of 0.1 M sodium chloride; assay type: nucleic-acid assay
Nucleic Acid [14] = experiment: Binding affinity to duplex DG DNA assessed as DNA intercalation by circular dichroism spectra analysis; assay type: nucleic-acid assay
Nucleic Acid [15] = experiment: Binding affinity to duplex DG DNA at 0.75 uM by fluorescence emission spectral analysis; assay type: nucleic-acid assay
Nucleic Acid [16] = experiment: Displacement of ethidium bromide from duplex DG DNA after 5 mins; assay type: nucleic-acid assay

SMILES: Cc1cccc2c(-c3ccc(C(=O)NCCN(C)C)cc3)c3[nH]c4c(C)cccc4c3nc12
- ΔTm (Nucleic Acid [1]): 0.8 °C
- ΔTm (Nucleic Acid [2]): -0.9 °C
- ΔTm (Nucleic Acid [3]): 1.5 °C
- ΔTm (Nucleic Acid [4]): 0.3 °C
- ΔTm (Nucleic Acid [5]): 1 °C
- ΔTm (Nucleic Acid [6]): 0.2 °C
- pIC50 5637: 5.49
- pIC50 (RT-4): 5.38
- pIC50 (A-427): 5.49
- pIC50 [7]: 5.43
- pIC50 (DAN-G): 5.59
- pIC50 (MCF7): 5.52
- Tm (Nucleic Acid [8]): 41.5 °C
- Tm (Nucleic Acid [9]): 51.6 °C
- Tm (Nucleic Acid [10]): 34.3 °C
- Tm (Nucleic Acid [11]): 45.1 °C
- Tm (Nucleic Acid [12]): 30.7 °C
- Tm (Nucleic Acid [13]): 40.3 °C

SMILES: COC(=O)c1ccc(-c2c3cccc(C)c3nc3c2[nH]c2c(C)cccc23)cc1
- pIC50 5637: < 4.70
- pIC50 (RT-4): < 4.70
- pIC50 (A-427): < 4.70
- pIC50 [7]: < 4.70
- pIC50 (DAN-G): < 4.70
- pIC50 (MCF7): 4.86

SMILES: COc1cccc2c(-c3ccc(C(=O)NCCN(C)C)cc3)c3[nH]c4c(OC)cccc4c3nc12
- Activity (Nucleic Acid [14]): Active
- ΔTm (Nucleic Acid [1]): 1.7 °C
- ΔTm (Nucleic Acid [2]): -0.5 °C
- ΔTm (Nucleic Acid [3]): 2.5 °C
- ΔTm (Nucleic Acid [4]): 0.5 °C
- ΔTm (Nucleic Acid [5]): 3.1 °C
- ΔTm (Nucleic Acid [6]): 0.5 °C
- pIC50 5637: 5.68
- pIC50 (RT-4): 5.44
- pIC50 (A-427): 5.77
- pIC50 [7]: 5.49
- pIC50 (DAN-G): 5.44
- pIC50 (MCF7): 5.54
- Tm (Nucleic Acid [8]): 42.4 °C
- Tm (Nucleic Acid [9]): 52 °C
- Tm (Nucleic Acid [10]): 35.3 °C
- Tm (Nucleic Acid [11]): 45.3 °C
- Tm (Nucleic Acid [12]): 32.8 °C
- Tm (Nucleic Acid [13]): 40.6 °C
- Activity (Nucleic Acid [15]): Active
- C50 (Nucleic Acid [16]): 93 µM

SMILES: COC(=O)c1ccc(-c2c3cccc(OC)c3nc3c2[nH]c2c(OC)cccc23)cc1
- pIC50 5637: 4.96
- pIC50 (RT-4): < 4.70
- pIC50 (A-427): 4.78
- pIC50 [7]: < 4.70
- pIC50 (DAN-G): < 4.70
- pIC50 (MCF7): < 4.70
